A short description of this test: Preliminary extraction study. The following applies: over a wide range of acidity and ionic strength.

Each structure is given as a SMILES string.

These results are taken from US9556122B2, “Luminescent 1-hydroxy-2-pyridinone chelates of lanthanides” (THE REGENTS OF THE UNIVERSITY OF CALIFORNIA, priority 2006, dated 2017).

Consider `CCCCCCCCNC(=O)c1cccc(=O)n1O` [octyl-1,2-HOPO, 1-Hydroxy-6-N-octylcarboxamide-2(1H)-pyridinone], for which the “specificity as extractant for Pu(IV)” value was “high specificity”.
